Like-named read-outs stand apart in the source and are kept apart here.
How the values were obtained:
[1] = tested on: green rice leafhopper which had acquired resistance to chemicals; assay: Rice seedling dip test, mortality of resistant green rice leafhopper larvae (Test Example 1); assay type: in vivo; settings: Nephotettix cincticeps, read-out: Mortality (%), 500 ppm
Source text: (§1) Five rice seedlings having a height of about 7 cm were dipped, for 10 seconds, into aqueous dilutions of wettable powder each containing a predetermined concentration of each sample compound, prepared in accordance with the procedure as described in Formulation Example 1. After air drying, the roots of the five rice seedlings were wrapped with sanitary cotton dampened with water, and placed in a glass cylinder having a diameter of 3 cm and a height of 20 cm. Ten second instar larvae of a green rice leafhopper which had acquired resistance to chemicals were released into each glass cylinder. The cylinder was allowed to stand in a room maintained at 26° C. The mortality of the larvae was examined 48 hours after treatment.

[2] = tested on: brown rice planthopper which had acquired resistance to chemicals; assay: Rice seedling dip test, mortality of resistant brown rice planthopper larvae (Test Example 2); assay type: in vivo; settings: read-out: Mortality (%), 500 ppm
Source text: as §1, with “brown” for “green”, “planthopper” for “leafhopper”

[3] = 500 ppm wettable powder dilution, rice seedlings dipped 10 seconds, second instar larvae, 48 hours after treatment, 26° C.

| SMILES | mortality at 500 ppm [1, 3] | mortality at 500 ppm [2, 3] | mortality at 500 ppm ([1]; 48 h) | mortality at 500 ppm ([2]; 48 h) |
| --- | --- | --- | --- | --- |
| CN1CN(C)C(=N[N+](=O)[O-])N(Cc2ccc(Cl)nc2)C1 [compound 5, 1-(2-chloro-5-pyridylmethyl)-3,5-dimethyl-2-nitroiminohexahydro-1,3,5-triazine] | 100% | 100% |  |  |
| CCN1CNC(=N[N+](=O)[O-])N(Cc2ccc(Cl)nc2)C1 [Compound No. 2, 1-(2-chloro-5-pyridylmethyl)-5-ethyl-2-nitroiminohexahydro-1,3,5-triazine] | 100% | 100% |  |  |
| CN1CNC(=N[N+](=O)[O-])N(Cc2ccc(Cl)nc2)C1 [compound 1, 1-(2-chloro-5-pyridylmethyl)-5-methyl-2-nitroiminohexahydro-1,3,5-triazine] | 100% | 100% |  |  |
| CN1CN(C)C(=N[N+](=O)[O-])N(Cc2cnc(Cl)s2)C1 [compound 6, 1-(2-chloro-5-thiazolylmethyl)-3,5-dimethyl-2-nitroiminohexahydro-1,3,5-triazine] | 100% | 100% |  |  |
| Cc1cc(OP(C)(C)=S)ccc1[N+](=O)[O-] [Comparative Compound, reference compound] |  |  | 70% | 65% |
